{
  "source": "patent US20220380319A1",
  "about": "(Bial - R&D Investments, S.A., priority 2019, published 2022)",
  "key": {"acid ceramidase": {"molecular_target": "T1, acid ceramidase (Homo sapiens, UniProt Q13510)", "T1 construct": "Cell lysates overexpressing acid ceramidase were used as the enzyme source; expressed in transfected cells", "T1 sequence (Q13510 22-395)": "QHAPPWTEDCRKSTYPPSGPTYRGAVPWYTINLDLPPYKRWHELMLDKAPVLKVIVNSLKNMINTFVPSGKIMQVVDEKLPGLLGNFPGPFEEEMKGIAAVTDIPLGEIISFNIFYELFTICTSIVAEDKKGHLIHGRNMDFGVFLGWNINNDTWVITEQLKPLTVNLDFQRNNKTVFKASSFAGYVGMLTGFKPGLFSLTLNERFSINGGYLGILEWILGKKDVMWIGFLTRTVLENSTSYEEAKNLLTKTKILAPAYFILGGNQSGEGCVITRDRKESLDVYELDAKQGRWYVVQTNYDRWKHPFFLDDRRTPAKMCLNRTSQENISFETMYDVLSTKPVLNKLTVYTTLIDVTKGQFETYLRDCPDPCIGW", "assay": "Acid ceramidase inhibition, biochemical fluorescent assay with cell lysates overexpressing acid ceramidase, substrate Rbm14-12", "settings": "substrate Rbm14-12 6.3 μM, pH 4.5", "method_in_brief": "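Lysate of cells overexpressing acid ceramidase (10 μg protein) preincubated with compound dose series 1 hr at RT in 25 mM NaAC, 100 mM NaCl, pH 4.5, then reacted 1 hr with 6.3 μM Rbm14-12. Stopped with NaIO4/glycine buffer pH 10.6, fluorescence ex360/em446; IC50 by four-parameter fit.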"}, "[1]": {"assay": "Compound solubility in water"}},
  "data": [
    {"compound": "O=C(NCCCc1ccccc1)n1cnc2c(N3CCN4CCCC4C3)cccc21", "note": "(stereo not shown) [Example 239, 4-(Hexahydropyrrolo[1,2-a]pyrazin-2(1H)-yl)-N-(3-phenylpropyl)-1H-benzo[d]imidazole-1-carboxamide]", "values": [
      {"measurement": "IC50", "setting": "acid ceramidase", "value": "< 200", "unit": "nM"},
      {"measurement": "solubility", "setting": "[1]", "value": 17, "unit": "µg/mL"}
    ]},
    {"compound": "CN1[C@@H]2CC[C@H]1CN(c1cccc3c1ncn3C(=O)NCCCc1ccccc1)C2", "note": "[Example 240, 4-((1R,5S)-8-Methyl-3,8-diazabicyclo[3.2.1]octan-3-yl)-N-(3-phenylpropyl)-1H-benzo[d]imidazole-1-carboxamide]", "values": [
      {"measurement": "IC50", "setting": "acid ceramidase", "value": "200 to 1000", "unit": "nM"},
      {"measurement": "solubility", "setting": "[1]", "value": 28, "unit": "µg/mL"}
    ]},
    {"compound": "CN1CC2CCC(C1)N2c1cccc2c1ncn2C(=O)NCCCc1ccccc1", "note": "[Example 241, 4-(3-Methyl-3,8-diazabicyclo[3.2.1]octan-8-yl)-N-(3-phenylpropyl)-1H-benzo[d]imidazole-1-carboxamide]", "values": [
      {"measurement": "IC50", "setting": "acid ceramidase", "value": "< 200", "unit": "nM"},
      {"measurement": "solubility", "setting": "[1]", "value": 25, "unit": "µg/mL"}
    ]},
    {"compound": "CN1C2CC1CN(c1cccc3c1ncn3C(=O)NCCCc1ccccc1)C2", "note": "[Example 243, 4-(6-Methyl-3,6-diazabicyclo[3.1.1]heptan-3-yl)-N-(3-phenylpropyl)-1H-benzo[d]imidazole-1-carboxamide]", "values": [
      {"measurement": "IC50", "setting": "acid ceramidase", "value": "< 200", "unit": "nM"},
      {"measurement": "solubility", "setting": "[1]", "value": 28, "unit": "µg/mL"}
    ]},
    {"compound": "CN1C[C@@H]2C[C@H]1CN2c1cccc2c1ncn2C(=O)NCCCc1ccccc1", "note": "[Example 244, 4-((1S,4S)-5-Methyl-2,5-diazabicyclo[2.2.1]heptan-2-yl)-N-(3-phenylpropyl)-1H-benzo[d]imidazole-1-carboxamide]", "values": [
      {"measurement": "IC50", "setting": "acid ceramidase", "value": "< 200", "unit": "nM"},
      {"measurement": "solubility", "setting": "[1]", "value": 30, "unit": "µg/mL"}
    ]},
    {"compound": "CN1CC2CC(C1)N2c1cccc2c1ncn2C(=O)NCCCc1ccccc1", "note": "[Example 245, 4-(3-Methyl-3,6-diazabicyclo[3.1.1]heptan-6-yl)-N-(3-phenylpropyl)-1H-benzo[d]imidazole-1-carboxamide]", "values": [
      {"measurement": "IC50", "setting": "acid ceramidase", "value": "< 200", "unit": "nM"},
      {"measurement": "solubility", "setting": "[1]", "value": 32, "unit": "µg/mL"}
    ]},
    {"compound": "CN1C[C@H]2C[C@@H]1CN2c1cccc2c1ncn2C(=O)NCCCc1ccccc1", "note": "[Example 246, 4-((1R,4R)-5-Methyl-2,5-diazabicyclo[2.2.1]heptan-2-yl)-N-(3-phenylpropyl)-1H-benzo[d]imidazole-1-carboxamide]", "values": [
      {"measurement": "IC50", "setting": "acid ceramidase", "value": "< 200", "unit": "nM"},
      {"measurement": "solubility", "setting": "[1]", "value": 29, "unit": "µg/mL"}
    ]},
    {"compound": "CN1CC2CCC1CN2c1cccc2c1ncn2C(=O)NCCCc1ccccc1", "note": "(stereo not shown) [Example 247, 4-(5-Methyl-2,5-diazabicyclo[2.2.2]octan-2-yl)-N-(3-phenylpropyl)-1H-benzo[d]imidazole-1-carboxamide]", "values": [
      {"measurement": "IC50", "setting": "acid ceramidase", "value": "< 200", "unit": "nM"},
      {"measurement": "solubility", "setting": "[1]", "value": 28, "unit": "µg/mL"}
    ]},
    {"compound": "O=C(NCCCc1ccccc1)n1cnc2c(N3CCC(F)(F)CC3)cccc21", "note": "[Example 248, 4-(4,4-Difluoropiperidin-1-yl)-N-(3-phenylpropyl)-1H-benzo[d]imidazole-1-carboxamide]", "values": [
      {"measurement": "IC50", "setting": "acid ceramidase", "value": "< 200", "unit": "nM"},
      {"measurement": "solubility", "setting": "[1]", "value": 1, "unit": "µg/mL"}
    ]},
    {"compound": "CCN1CCN(c2cccc3c2ncn3C(=O)NCCCc2ccccc2)CC1", "note": "[Example 249, 4-(4-Ethylpiperazin-1-yl)-N-(3-phenylpropyl)-1H-benzo[d]imidazole-1-carboxamide]", "values": [
      {"measurement": "IC50", "setting": "acid ceramidase", "value": "< 200", "unit": "nM"},
      {"measurement": "solubility", "setting": "[1]", "value": 12, "unit": "µg/mL"}
    ]},
    {"compound": "CN1CCN(c2cccc3c2ncn3C(=O)NCCCc2ccccc2)CC12CC2", "note": "[Example 250, 4-(4-Methyl-4,7-diazaspiro[2.5]octan-7-yl)-N-(3-phenylpropyl)-1H-benzo[d]imidazole-1-carboxamide]", "values": [
      {"measurement": "IC50", "setting": "acid ceramidase", "value": "< 200", "unit": "nM"},
      {"measurement": "solubility", "setting": "[1]", "value": 23, "unit": "µg/mL"}
    ]},
    {"compound": "CN1CC(N2CCN(c3cccc4c3ncn4C(=O)NCCCc3ccccc3)CC2)C1", "note": "[Example 251, 4-(4-(1-Methylazetidin-3-yl)piperazin-1-yl)-N-(3-phenylpropyl)-1H-benzo[d]imidazole-1-carboxamide]", "values": [
      {"measurement": "IC50", "setting": "acid ceramidase", "value": "< 200", "unit": "nM"},
      {"measurement": "solubility", "setting": "[1]", "value": 35, "unit": "µg/mL"}
    ]},
    {"compound": "O=C1CN(c2cccc3c2ncn3C(=O)NCCCc2ccccc2)CCN1C1CC1", "note": "[Example 252, 4-(4-Cyclopropyl-3-oxopiperazin-1-yl)-N-(3-phenylpropyl)-1H-benzo[d]imidazole-1-carboxamide]", "values": [
      {"measurement": "IC50", "setting": "acid ceramidase", "value": "< 200", "unit": "nM"},
      {"measurement": "solubility", "setting": "[1]", "value": 1, "unit": "µg/mL"}
    ]},
    {"compound": "C[C@@H](CCNC(=O)n1cnc2c(N3CCN(C)CC3)cccc21)c1ccccc1", "note": "[Example 253a, (S)-4-(4-Methylpiperazin-1-yl)-N-(3-phenylbutyl)-1H-benzo[d]imidazole-1-carboxamide]", "values": [
      {"measurement": "IC50", "setting": "acid ceramidase", "value": "< 200", "unit": "nM"},
      {"measurement": "solubility", "setting": "[1]", "value": 26, "unit": "µg/mL"}
    ]}
  ]
}
